According to PubChem BioAssay AID1963425 (Molecular Pharmacology Branch, DTP, NCI, 2024):

Test system: 323965-272-R-J2-PDC complex spheroid growth, % test/control
Assay: Anticancer human tumor 323965-272-R-J2-PDC patient-derived pancreatic carcinoma cell line growth inhibition [Asc]
Conditions: for viability, T/C: stronger effect = lower value
Summary of the method: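 Complex spheroids combining tumor cells with HUVEC endothelial cells and human MSCs, at 37 degrees C, 5% CO2; agents tested alone or combined, half-log dilutions from at or near clinical Cmax, or 10 microM if Cmax unknown.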

[1] = curve of first compound, second compound 0.00316 µM
[2] = curve of first compound, second compound 0.01 µM
[3] = curve of first compound, second compound 0.0316 µM
[4] = curve of first compound, second compound 0.1 µM
[5] = curve of first compound, second compound 0.316 µM
[6] = curve of first compound, second compound 1 µM
[7] = second compound 0.00316 µM, first compound 0.0316 µM
[8] = second compound 0.00316 µM, first compound 0.1 µM
[9] = second compound 0.00316 µM, first compound 0.316 µM
[10] = second compound 0.00316 µM, first compound 1 µM
[11] = second compound 0.01 µM, first compound 0.0316 µM
[12] = second compound 0.01 µM, first compound 0.1 µM
[13] = second compound 0.01 µM, first compound 0.316 µM
[14] = second compound 0.01 µM, first compound 1 µM
[15] = second compound 0.0316 µM, first compound 0.0316 µM
[16] = second compound 0.0316 µM, first compound 0.1 µM
[17] = second compound 0.0316 µM, first compound 0.316 µM
[18] = second compound 0.0316 µM, first compound 1 µM
[19] = second compound 0.1 µM, first compound 0.0316 µM
[20] = second compound 0.1 µM, first compound 0.1 µM
[21] = second compound 0.1 µM, first compound 0.316 µM
[22] = second compound 0.1 µM, first compound 1 µM
[23] = second compound 0.316 µM, first compound 0.0316 µM
[24] = second compound 0.316 µM, first compound 0.1 µM
[25] = second compound 0.316 µM, first compound 0.316 µM
[26] = second compound 0.316 µM, first compound 1 µM
[27] = second compound 1 µM, first compound 0.0316 µM
[28] = second compound 1 µM, first compound 0.1 µM
[29] = second compound 1 µM, first compound 0.316 µM
[30] = second compound 1 µM, first compound 1 µM
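Also: compound exposure lasted 7 days starting three days after spheroid seeding.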
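For viability, T/C in this document: 100% = DMSO vehicle control wells with viability set relative to vehicle.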

O=C(c1cc(Cc2n[nH]c(=O)c3ccccc23)ccc1F)N1CCN(C(=O)C2CC2)CC1 + CNC(C)C(=O)NC1CN(S(=O)(=O)c2cccc(S(=O)(=O)N3CCC4CCC(C(=O)NC(c5ccccc5)c5ccccc5)N4C(=O)C(NC(=O)C(C)NC)C3)c2)CCC2CCC(C(=O)NC(c3ccccc3)c3ccccc3)N2C1=O
IC50 [1]: < 31.6 nM | IC50 [2]: > 10000 nM | IC50 [3]: > 10000 nM | IC50 [4]: > 10000 nM | IC50 [5]: > 10000 nM | IC50 [6]: > 10000 nM | viability, T/C [7]: 43.1% | viability, T/C [8]: 45.3% | viability, T/C [9]: 41% | viability, T/C [10]: 47.4% | viability, T/C (second compound 0.00316 µM, first compound 3.16 µM): 44.6% | viability, T/C (second compound 0.00316 µM, first compound 10 µM): 36.6% | viability, T/C [11]: 99.4% | viability, T/C [12]: 101% | viability, T/C [13]: 97.5% | viability, T/C [14]: 94.5% | viability, T/C (second compound 0.01 µM, first compound 3.16 µM): 75.9% | viability, T/C (second compound 0.01 µM, first compound 10 µM): 72% | viability, T/C [15]: 101% | viability, T/C [16]: 99.4% | viability, T/C [17]: 100% | viability, T/C [18]: 105% | viability, T/C (second compound 0.0316 µM, first compound 3.16 µM): 102% | viability, T/C (second compound 0.0316 µM, first compound 10 µM): 70.7% | viability, T/C [19]: 92.6% | viability, T/C [20]: 91.9% | viability, T/C [21]: 89.7% | viability, T/C [22]: 99.3% | viability, T/C (second compound 0.1 µM, first compound 3.16 µM): 94.5% | viability, T/C (second compound 0.1 µM, first compound 10 µM): 71.9% | viability, T/C [23]: 93.4% | viability, T/C [24]: 89.1% | viability, T/C [25]: 97.9% | viability, T/C [26]: 89.7% | viability, T/C (second compound 0.316 µM, first compound 3.16 µM): 93.7% | viability, T/C (second compound 0.316 µM, first compound 10 µM): 80% | viability, T/C [27]: 94.5% | viability, T/C [28]: 87% | viability, T/C [29]: 83.3% | viability, T/C [30]: 93.1% | viability, T/C (second compound 1 µM, first compound 3.16 µM): 89.2% | viability, T/C (second compound 1 µM, first compound 10 µM): 68.3%

CCN1C(C(=O)NC23CCC(C(=O)O)(CC2)CC3)C(c2cccc(Cl)c2F)C2(C(=O)Nc3cc(Cl)ccc32)C12CCCCC2 (configuration not stated)
viability, T/C (compound 0.00949 µM): 109% [middle of 9 runs] | viability, T/C (compound 0.03 µM): 105% [middle of 9 runs] | viability, T/C (compound 0.0949 µM): 104% [middle of 9 runs] | viability, T/C (compound 0.3 µM): 101% [middle of 9 runs] | viability, T/C (compound 0.949 µM): 110% [middle of 9 runs] | viability, T/C (compound 3 µM): 101% [middle of 9 runs] | IC50 (compound alone, run of 11/07/2022): > 3000 nM | IC50 (curve of compound): > 3000 nM

O=C(c1ccc(F)c(F)c1Nc1ccc(I)cc1F)N1CC(O)([C@@H]2CCCCN2)C1 + CNC(C)C(=O)NC1CN(S(=O)(=O)c2cccc(S(=O)(=O)N3CCC4CCC(C(=O)NC(c5ccccc5)c5ccccc5)N4C(=O)C(NC(=O)C(C)NC)C3)c2)CCC2CCC(C(=O)NC(c3ccccc3)c3ccccc3)N2C1=O
IC50 [1]: 97.8 nM | IC50 [2]: 77.1 nM | IC50 [3]: 80.6 nM | IC50 [4]: 92.4 nM | IC50 [5]: 70.6 nM | IC50 [6]: 53.5 nM | viability, T/C (second compound 0.00316 µM, first compound 0.00316 µM): 117% | viability, T/C (second compound 0.00316 µM, first compound 0.01 µM): 99.1% | viability, T/C [7]: 77.5% | viability, T/C [8]: 50.1% | viability, T/C [9]: 27.3% | viability, T/C [10]: 18.5% | viability, T/C (second compound 0.01 µM, first compound 0.00316 µM): 105% | viability, T/C (second compound 0.01 µM, first compound 0.01 µM): 90.3% | viability, T/C [11]: 60.8% | viability, T/C [12]: 47.7% | viability, T/C [13]: 28.2% | viability, T/C [14]: 13.2% | viability, T/C (second compound 0.0316 µM, first compound 0.00316 µM): 94.5% | viability, T/C (second compound 0.0316 µM, first compound 0.01 µM): 96.3% | viability, T/C [15]: 64.3% | viability, T/C [16]: 47.9% | viability, T/C [17]: 25.7% | viability, T/C [18]: 14.4% | viability, T/C (second compound 0.1 µM, first compound 0.00316 µM): 102% | viability, T/C (second compound 0.1 µM, first compound 0.01 µM): 90.9% | viability, T/C [19]: 81.6% | viability, T/C [20]: 46.4% | viability, T/C [21]: 23.6% | viability, T/C [22]: 13.1% | viability, T/C (second compound 0.316 µM, first compound 0.00316 µM): 110% | viability, T/C (second compound 0.316 µM, first compound 0.01 µM): 82.8% | viability, T/C [23]: 71.5% | viability, T/C [24]: 41.8% | viability, T/C [25]: 22% | viability, T/C [26]: 11.3% | viability, T/C (second compound 1 µM, first compound 0.00316 µM): 92.8% | viability, T/C (second compound 1 µM, first compound 0.01 µM): 85.6% | viability, T/C [27]: 57.3% | viability, T/C [28]: 39% | viability, T/C [29]: 18.8% | viability, T/C [30]: 9.3%
